Laboratory results published in ChEMBL document CHEMBL1158663, “New acetylenes isolated from the bark of Heisteria acuminata” (J Nat Prod, 1998).

Tests used:
[1] = species: Ovis aries; experiment: Inhibition of COX in sheep seminal vesicle microsome assessed as reduction in PGE2 concentration at 13 uM relative to control; assay type: microsomes
[2] = species: Ovis aries; experiment: Inhibition of COX in sheep seminal vesicle microsome assessed as reduction in PGE2 concentration at 6.5 uM relative to control; assay type: microsomes
[3] = species: Sus scrofa; experiment: Inhibition of 5-LO from pig leukocytes at 5 uM

Row | Compound | inhibition [1] [%] | inhibition [2] [%] | inhibition [3] [%]
1 | CCCC/C=C\C#CC#CCCCCCC(=O)O | 51 | 36 | 45
2 | CCCCC/C=C\CC#CC#CCCCCCC(=O)O | 56 | 40 | 55
3 | CCCCC#CC#CC#CCCCCC(=O)O | 55 | 36 | 18
4 | CCCCCC#CC#CC#CCCCCCCC(=O)O | 45 | 33 | 21
5 | CCCC/C=C/C#CC#CCCCCC(=O)O | 56 | 44 | 14
